Patent US20250311759A1, “ORGANIC COMPOUNDS” (GIVAUDAN SA, priority 2022, published 2025)

Experiments:
Type in all cases: in vivo
sensory panel [1] = test: Salt enhancement in aqueous NaCl solution, sensory panel; conditions: for taste description versus 0.5% NaCl solution: 50 ppm in 0.5% NaCl
From the text: Two aqueous solutions have been prepared: • A) 0.3% NaCl, and • B) 0.3% NaCl and 100 ppm of 1H-imidazole.
The solutions were tasted by a sensory panel. Solution A was described as “salty”.
Two aqueous solutions have been prepared: • A) 0.5% NaCl, and • B) 0.5% NaCl and 50 of ppm of 4-methyl-1H-imidazole.
The solutions were tasted by a sensory panel. Solution A was described as “salty”. Solution B was described as more salty in comparison to solution A.
Two aqueous solutions have been prepared: • A) 0.5% NaCl, and • B) 0.5% NaCl and 50 ppm of (2E)-3-(1H-imidazol-4-yl)prop-2-enoic acid (urocanic acid).
The following aqueous solutions have been prepared: • A) 0.3% NaCl, • B) 0.3% NaCl and 90 ppm of 2-(1H-imidazol-4-yl)acetic acid, and • C) 0.3% NaCl and 80 ppm of benzimidazole. • The solutions were tasted by a sensory panel. Solution A was described as “salty”.

sensory panel [2] = test: Effect on commercially available mayonnaise, sensory panel; conditions: 70 ppm in mayonnaise
From the text: Samples of commercially available mayonnaise with and without addition of 1H-imidazole have been compared by a sensory panel.
Samples of commercially available mayonnaise with addition of 2-(1H-imidazol-4-yl)acetic acid or benzimidazole and without have been compared by a sensory panel.

sensory panel [3] = test: Bitter masking in aqueous KCl solution, sensory panel
From the text: Two aqueous solutions have been prepared: • A) 0.3% KCl, and • B) 0.3% KCl and 70 ppm of 1H-imidazole.
(§1) The solutions were tasted by a sensory panel.
The following aqueous solutions have been prepared: • A) 0.3% KCl, and • B) 0.3% KCl and 100 ppm of 2-(1H-imidazol-4-yl)acetic acid, and • C) 0.3% KCl and 100 ppm of benzimidazole.

sensory panel [4] = test: Effect on corn curls with cheese flavor, sensory panel
From the text: Corn curls with cheese flavor with and without addition of 1H-imidazole have been compared by a sensory panel.
Corn curls with cheese flavor with addition of 2-(1H-imidazol-4-yl)acetic acid or benzimidazole and without have been compared by a sensory panel.

sensory panel [5] = test: Effect on commercially available ketchup, sensory panel
From the text: Samples of commercially available ketchup with and without addition of 2-(1H-imidazol-4-yl)acetic acid or benzimidazole have been compared by a sensory panel.

sensory panel [6] = test: Effect on model broth base, sensory panel
From the text: A model broth base, comprising 0.3% of NaCl was compared with a sample further comprising 100 ppm of 1H-imidazole.
as §1
A model broth base, comprising 0.3% of NaCl was compared with a sample further comprising 70 ppm of 2-(1H-imidazol-4-yl)acetic acid, and 100 ppm of benzimidazole, respectively.
The solutions were tasted by a sensory panel. […] The solution comprising benzimidazole was preferred.

sensory panel [7] = test: Effect on commercially available cheese sauce, sensory panel
From the text: The effect of 1H-imidazole on a commercially available cheese sauce was explored.
Therefore, a cheese sauce has been compared by a sensory panel with a sample of the sauce further comprising 70 ppm of 1H-imidazole.
The effect of 2-(1H-imidazol-4-yl)acetic acid on a commercially available cheese sauce was explored. Therefore, a cheese sauce has been compared by a sensory panel with a sample of the sauce further comprising 50 ppm of 2-(1H-imidazol-4-yl)acetic acid.

sensory panel [8] = test: Umami enhancement in savoury model solution (NaCl, MSG, Ribotides), sensory panel; conditions: 100 ppm in 0.5% NaCl, 0.03% MSG, 0.007% Ribotides
From the text: Two aqueous solutions have been prepared: • A) 0.5% NaCl, 0.03% MSG, 0.007% Ribotides, and • B) 0.5% NaCl, 0.03% MSG, 0.007% Ribotides and 100 ppm of 1H-imidazole.
The solutions were tasted by a sensory panel. Solution A is a model solution for savoury taste, containing MSG (monosodium glutamate) and Ribotides (IMP/GMP, 50/50 mixture) as savoury taste enhancer.

sensory panel [9] = test: Effect on potato chips, sensory panel; conditions: 70 ppm, potato chips with 1.5% salt
From the text: Potato chips with 1.5% salt have been tasted by a sensory panel with and without 1H-imidazole.

sensory panel [10] = test: Effect on soy based vegan burger, sensory panel; conditions: 70 ppm in soy based vegan burger; initial peak and last phase of salt perception
From the text: Soy based vegan burgers with and without 1H-imidazole have been tasted by a sensory panel.

[11] = 150 ppm on corn curls with cheese flavor
[12] = 100 ppm in model broth base comprising 0.3% NaCl

Cc1c[nH]cn1 [4-methyl-1H-imidazole]
taste description versus 0.5% NaCl solution (sensory panel [1]): more salty

c1ccc2[nH]cnc2c1 [benzimidazole]
taste description versus pure mayonnaise (sensory panel [2]): clearly more salty with a less sour impression
taste description versus 0.3% KCl solution (sensory panel [3]; 100 ppm in 0.3% KCl): less bitter, less metallic and more salty
taste description versus 0.3% NaCl solution (sensory panel [1]; 80 ppm in 0.3% NaCl): clearly more salty with a sour fresh background
taste description versus corn curls without compound (sensory panel [4]; [11]): saltier, and the rich profile was enhanced
taste description versus pure ketchup (sensory panel [5]; 70 ppm in ketchup): clearly more salty
panel preference in broth (sensory panel [6]; 100 ppm benzimidazole versus 70 ppm 2-(1H-imidazol-4-yl)acetic acid in model broth base): preferred
taste description versus model broth base (sensory panel [6]; [12]): more mineral and salty

O=C(O)Cc1c[nH]cn1 [2-(1H-imidazol-4-yl)acetic acid]
taste description versus pure mayonnaise (sensory panel [2]): clearly more salty with a less sour impression
panel preference / KCl masker rating (sensory panel [3]; 100 ppm in 0.3% KCl): preferred over solution C
taste description versus 0.3% KCl solution (sensory panel [3]; 100 ppm in 0.3% KCl): less bitter, less metallic and more salty
taste description versus 0.3% NaCl solution (sensory panel [1]; 90 ppm in 0.3% NaCl): clearly more salty with a minearlic note
taste description versus corn curls without compound (sensory panel [4]; [11]): saltier, and the rich profile was enhanced
taste description versus cheese sauce (sensory panel [7]; 50 ppm in cheese sauce): preferred, having more saltiness and umami character
taste description versus pure ketchup (sensory panel [5]; 100 ppm in ketchup): clearly more salty, sour lingering and less sweet
taste description versus model broth base (sensory panel [6]; 70 ppm in model broth base comprising 0.3% NaCl): more mineral and salty

c1c[nH]cn1 [1H-imidazole]
taste description versus pure mayonnaise (sensory panel [2]): clearly more salty and had a stronger acetic acid character
taste description versus savoury model solution (sensory panel [8]): strong boost of saltiness and umami
taste description versus 0.3% KCl solution (sensory panel [3]; 70 ppm in 0.3% KCl): less metallic and more salty
taste description versus potato chips without compound (sensory panel [9]): higher salty impact and a lingering effect
taste description versus 0.3% NaCl solution (sensory panel [1]; 100 ppm in 0.3% NaCl): clearly more salty with a mineralic note, low acidity, some astringency and freshness
taste description versus corn curls without compound (sensory panel [4]; 100 ppm on corn curls with cheese flavor): saltier, and the rich profile was enhanced
taste description versus cheese sauce (sensory panel [7]; 70 ppm in cheese sauce): more mineral and salty
taste description versus burger without compound (sensory panel [10]): more salty
taste description versus model broth base (sensory panel [6]; [12]): more mineral and salty as well as more umami

O=C(O)/C=C/c1c[nH]cn1 [urocanic acid, (2E)-3-(1H-imidazol-4-yl)prop-2-enoic acid]
taste description versus 0.5% NaCl solution (sensory panel [1]): more salty
